Source: ChEMBL document CHEMBL3232879, “4,5,6,7-Tetrahydro-isoxazolo-[4,5-c]-pyridines as a new class of cytotoxic Hsp90 inhibitors” (Eur J Med Chem, 2014)

Molecular target: T1, Protein deacetylase HDAC6 (Homo sapiens, UniProt Q9UBN7)
T1 sequence (Q9UBN7 whole entry): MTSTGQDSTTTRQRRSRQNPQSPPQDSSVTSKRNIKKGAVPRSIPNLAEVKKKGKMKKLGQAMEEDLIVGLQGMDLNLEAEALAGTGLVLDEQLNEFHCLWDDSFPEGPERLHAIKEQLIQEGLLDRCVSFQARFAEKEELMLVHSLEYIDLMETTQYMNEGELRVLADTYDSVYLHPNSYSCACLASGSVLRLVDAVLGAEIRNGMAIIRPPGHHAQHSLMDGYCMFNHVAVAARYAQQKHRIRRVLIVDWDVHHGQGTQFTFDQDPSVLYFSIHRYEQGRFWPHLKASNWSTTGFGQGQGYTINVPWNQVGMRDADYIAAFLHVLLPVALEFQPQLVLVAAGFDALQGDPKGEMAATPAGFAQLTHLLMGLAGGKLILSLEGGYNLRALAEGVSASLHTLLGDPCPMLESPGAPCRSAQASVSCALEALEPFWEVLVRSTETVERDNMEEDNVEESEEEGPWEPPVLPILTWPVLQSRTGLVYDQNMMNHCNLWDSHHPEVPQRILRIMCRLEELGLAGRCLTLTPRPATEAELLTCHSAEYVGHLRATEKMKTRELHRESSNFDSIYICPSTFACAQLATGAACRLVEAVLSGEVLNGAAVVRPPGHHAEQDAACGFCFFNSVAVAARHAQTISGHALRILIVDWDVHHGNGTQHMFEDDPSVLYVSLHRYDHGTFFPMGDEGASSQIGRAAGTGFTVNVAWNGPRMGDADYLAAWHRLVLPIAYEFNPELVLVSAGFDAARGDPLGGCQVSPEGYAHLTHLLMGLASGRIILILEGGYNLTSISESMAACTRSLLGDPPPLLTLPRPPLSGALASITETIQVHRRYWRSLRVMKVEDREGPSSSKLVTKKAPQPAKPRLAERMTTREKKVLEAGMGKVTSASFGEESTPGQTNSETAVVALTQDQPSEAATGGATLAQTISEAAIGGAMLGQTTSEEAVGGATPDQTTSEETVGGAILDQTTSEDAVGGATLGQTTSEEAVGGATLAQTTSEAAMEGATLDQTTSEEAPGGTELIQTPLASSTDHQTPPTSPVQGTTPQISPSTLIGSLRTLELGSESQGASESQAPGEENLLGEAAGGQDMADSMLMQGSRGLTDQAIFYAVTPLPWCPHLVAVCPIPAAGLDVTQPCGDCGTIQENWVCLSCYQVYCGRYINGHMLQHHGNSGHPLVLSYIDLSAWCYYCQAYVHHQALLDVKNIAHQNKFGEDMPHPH
Assay: Inhibition of human HDAC-6 using RHKK(Ac) as substrate

For CC(C)c1cc(C(=O)N2CCc3onc(C(=O)NCCCCCCC(=O)NO)c3C2)c(O)cc1O, the IC50 was 4.1 nM.
